The results in this text go back to ChEMBL document CHEMBL6103594, “Synthesis and evolution of 16-membered macrolide carrimycin derivatives as a novel class of anti-HCoV-OC43 agents targeting viral FSE RNA” (Eur J Med Chem, 2025).

Data set [1] has as its system Human coronavirus 229E. The data set is described as follows: Antiviral activity against HCoV-229E. The format is functional, organism-based.
For data set [2], the system named is Human coronavirus OC43. In words: Antiviral activity against HCoV-OC43. The format is functional, organism-based.
The target of data set [3] is T1, DIS3-like exonuclease 2 (Homo sapiens) (UniProt Q8IYB7).
T1 sequence (whole entry): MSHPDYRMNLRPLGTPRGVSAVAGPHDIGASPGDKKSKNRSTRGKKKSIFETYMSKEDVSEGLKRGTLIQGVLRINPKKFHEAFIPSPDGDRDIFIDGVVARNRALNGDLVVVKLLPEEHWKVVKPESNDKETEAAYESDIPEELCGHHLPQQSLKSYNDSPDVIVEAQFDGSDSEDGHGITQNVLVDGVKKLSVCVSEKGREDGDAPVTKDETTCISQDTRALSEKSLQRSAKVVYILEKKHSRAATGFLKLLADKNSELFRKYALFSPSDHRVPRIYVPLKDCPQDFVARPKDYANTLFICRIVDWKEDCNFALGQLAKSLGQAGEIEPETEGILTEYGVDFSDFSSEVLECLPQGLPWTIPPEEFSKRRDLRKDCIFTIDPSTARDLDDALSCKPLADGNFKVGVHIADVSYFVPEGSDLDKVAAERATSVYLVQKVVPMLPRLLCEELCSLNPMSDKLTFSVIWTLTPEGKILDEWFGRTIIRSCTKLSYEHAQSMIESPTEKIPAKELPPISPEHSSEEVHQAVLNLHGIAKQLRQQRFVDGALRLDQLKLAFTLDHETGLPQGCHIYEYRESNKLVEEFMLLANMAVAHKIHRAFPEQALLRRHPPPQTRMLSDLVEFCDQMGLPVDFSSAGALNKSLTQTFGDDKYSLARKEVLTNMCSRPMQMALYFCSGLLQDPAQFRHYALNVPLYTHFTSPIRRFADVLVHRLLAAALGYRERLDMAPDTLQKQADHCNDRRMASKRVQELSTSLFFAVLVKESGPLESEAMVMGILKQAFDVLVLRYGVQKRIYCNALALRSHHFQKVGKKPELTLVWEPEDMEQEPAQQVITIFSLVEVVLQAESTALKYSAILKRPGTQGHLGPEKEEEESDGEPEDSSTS
In words: Binding affinity to DIS3L2 in human NCI-H460 cells assessed as increase in thermal stability at 10 uM incubated for 6 hrs followed by heat exposure at 55 to 75 degreeC for 3 mins by CETSA. The following applies: time 363.0 min. The format is cell-based.

Data set [4] deals with Human coronavirus OC43. The data set is described as follows: Antiviral activity against HCoV-OC43 infected in human NCI-H460 cells incubated for 72 hrs by CCK8 assay. In kind it is functional, organism-based. The following applies: Betacoronavirus 1, NCI-H460, 72 h.
The nature of data set [5]: Cytotoxicity against human NCI-H460 cells incubated for 72 hrs by CCK8 assay. In kind it is toxicity, cell-based. The conditions noted are these: read-out: EC50. Background: Formazan colour is commonly taken as a measure of viable cells.
Data set [6] is described as follows: Selectivity index, ratio of CC50 for cytotoxicity against human NCI-H460 cells to EC50 for antiviral activity against HCoV-OC43 infected in human NCI-H460 cells. The format is toxicity, cell-based, NCI-460. The following applies: read-out: Ratio CC50/EC50.
For data set [7], the system named is Human coronavirus 229E. In words: Antiviral activity against HCoV-229E at replication stage in human Huh-7 cells assessed as dsRNA level at 2 uM treated immediately after infection incubated for 4 to 10 hrs by immunofluorescence based analysis. The format is functional, organism-based. The conditions noted are these: time 4-10 hrs.
The next data set concerns FSE RNA pseudoknot. The data set is described as follows: Binding affinity to CM5 chip-immobilized coronavirus FSE RNA pseudoknot assessed as dissociation constant by SPR analysis. The format is nucleic-acid assay, unidentified human coronavirus.
The target of data set [8] is T1, DIS3-like exonuclease 2 (Homo sapiens). In words: (§1) Binding affinity to DIS3L2 (unknown origin) assessed as dissociation constant by SPR analysis. For orientation: In SPR one partner is held on a chip, and binding of the other changes the refractive index at the surface.
In the next data set the target is T2, DIS3-like exonuclease 2 (Homo sapiens, UniProt Q8IYB7).
T2 sequence (Q8IYB7 whole entry): T1 sequence (whole entry)
The data set is described as §1.

For data set [9], the system named is Human coronavirus OC43. The data set is described as follows: Antiviral activity against HCoV-OC43 at replication stage in human Huh-7 cells assessed as dsRNA level at 2 uM treated immediately after infection incubated for 4 to 10 hrs by immunofluorescence based analysis. The conditions noted are these: time 4-10 hrs. The format is functional, organism-based.

Active and inactive are the calls of the source. No cut-off for these calls is given here. Bounds are passed on as bounds.

Regarding SPIRAMYCIN, the values for the EC50 with Human coronavirus 229E [1] and with Human coronavirus OC43 [2] were 29.3 µM and > 50 µM, respectively.

Consider `CO[C@@H]1[C@@H](O[C@@H]2O[C@H](C)[C@@H](O[C@H]3C[C@@](C)(O)[C@@H](OC(=O)CC(C)C)[C@H](C)O3)[C@H](N(C)C)[C@H]2O)[C@@H](CC=O)C[C@@H](C)[C@@H](O[C@H]2CC[C@H](N(C)C)[C@@H](C)O2)/C=C/C=C/C[C@@H](C)OC(=O)C[C@H]1O`, for which the EC50 (as a rule, the concentration that produces a half-maximal response) in the data set on Human coronavirus 229E [1] (Human coronavirus 229E) amounted to 3.61 µM; in the data set with Human coronavirus OC43 [2] (Betacoronavirus 1), 5.95 µM.

`CCC(=O)O[C@@H]1CC(=O)O[C@H](C)C/C=C/C=C/[C@H](O[C@H]2CC[C@H](N(C)C)[C@@H](C)O2)[C@H](C)C[C@H](CC=O)[C@H](O[C@@H]2O[C@H](C)[C@@H](O[C@H]3C[C@@](C)(O)[C@@H](O)[C@H](C)O3)[C@H](N(C)C)[C@H]2O)[C@H]1OC`: the EC50 was 27.4 µM in the data set on Human coronavirus 229E [1] (Human coronavirus 229E) and > 50 µM with Human coronavirus OC43 [2] (Betacoronavirus 1).

In the case of `CO[C@@H]1[C@@H](O[C@@H]2O[C@H](C)[C@@H](O[C@H]3C[C@@](C)(O)[C@@H](OC(=O)CC(C)C)[C@H](C)O3)[C@H](N(C)C)[C@H]2O)[C@@H](CC=O)C[C@@H](C)[C@@H](O[C@H]2CC[C@H](N(C)C)[C@@H](C)O2)/C=C/C=C/C[C@@H](C)OC(=O)C[C@H]1OC(C)=O`, the results for the 50% effective concentration (EC50) with Human coronavirus 229E [1] (Human coronavirus 229E) and in the data set on Human coronavirus OC43 [2] (Betacoronavirus 1) were 6.38 µM and 11.8 µM, respectively.

Regarding `CO[C@@H]1[C@@H](O[C@@H]2O[C@H](C)[C@@H](O[C@H]3C[C@@](C)(O)[C@@H](OC(=O)Cc4ccc(Cl)cc4)[C@H](C)O3)[C@H](N(C)C)[C@H]2O)[C@@H](CC=O)C[C@@H](C)[C@@H](O[C@H]2CC[C@H](N(C)C)[C@@H](C)O2)/C=C/C=C/C[C@@H](C)OC(=O)C[C@H]1O`, the result (in data set [3]; in the data set with Human coronavirus 229E [7]; in the data set on Human coronavirus OC43 [9]) was Active. The response in the data set with Human coronavirus OC43 [4] was half-maximal at 0.85 µM (EC50). The CC50 at 72 h in data set [5] was 17.4 µM. In data set [6], the selectivity ratio was found to be 20.5. In addition, the Kd (commonly the concentration at which binding is half-saturated) with FSE RNA pseudoknot was 7.29 µM; at DIS3-like exonuclease 2 it was 4.67 µM. The Activity entry (in the data set with FSE RNA pseudoknot (unidentified human coronavirus); in data set [8]) was “Dose-dependent-effect” in each case.

`CO[C@@H]1[C@@H](O[C@@H]2O[C@H](C)[C@@H](O[C@H]3C[C@@](C)(O)[C@@H](O)[C@H](C)O3)[C@H](N(C)C)[C@H]2OC(=O)c2ccc(F)cc2C(F)(F)F)[C@@H](CC=O)C[C@@H](C)[C@@H](O[C@H]2CC[C@H](N(C)C)[C@@H](C)O2)/C=C/C=C/C[C@@H](C)OC(=O)C[C@H]1O`: a half-maximal response in the data set with Human coronavirus OC43 [4] (EC50) required 1.2 µM. Moreover, in [5], the CC50 at 72 h worked out at 3.54 µM. For the same molecule, in data set [6], the selectivity ratio stood at 3.

For the molecule `CO[C@@H]1[C@@H](O[C@@H]2O[C@H](C)[C@@H](O[C@H]3C[C@@](C)(O)[C@@H](O)[C@H](C)O3)[C@H](N(C)C)[C@H]2OC(=O)C2CCC2)[C@@H](CC=O)C[C@@H](C)[C@@H](O[C@H]2CC[C@H](N(C)C)[C@@H](C)O2)/C=C/C=C/C[C@@H](C)OC(=O)C[C@H]1O`, in the data set on Human coronavirus OC43 [4], the EC50 was > 6.25 µM. Besides, the CC50 at 72 h in [5] was 13.7 µM. Further, the selectivity ratio in data set [6] was < 2.2.

`CCC(=O)O[C@@H]1CC(=O)O[C@H](C)C/C=C/C=C/[C@H](O[C@H]2CC[C@H](N(C)C)[C@@H](C)O2)[C@H](C)C[C@H](CC=O)[C@H](O[C@@H]2O[C@H](C)[C@@H](O[C@H]3C[C@@](C)(O)[C@@H](OC(=O)CC(C)C)[C@H](C)O3)[C@H](N(C)C)[C@H]2O)[C@H]1OC`: the results for the EC50 with Human coronavirus 229E [1] (Human coronavirus 229E) and in the data set on Human coronavirus OC43 [2] (Betacoronavirus 1) were 3.52 µM and 10.2 µM, respectively.

In the data set on Human coronavirus OC43 [4], `CO[C@@H]1[C@@H](O[C@@H]2O[C@H](C)[C@@H](O[C@H]3C[C@@](C)(O)[C@@H](OC(=O)CC(C)C)[C@H](C)O3)[C@H](N(C)C)[C@H]2OC(C)=O)[C@@H](CC=O)C[C@@H](C)[C@@H](O[C@H]2CC[C@H](N(C)C)[C@@H](C)O2)/C=C/C=C/C[C@@H](C)OC(=O)C[C@H]1O` showed an EC50 of 7.89 µM. In [5], the CC50 at 72 h was found to be 25.7 µM. In addition, the selectivity ratio in [6] is 3.3.

The molecule `CO[C@@H]1[C@@H](O[C@@H]2O[C@H](C)[C@@H](O[C@H]3C[C@@](C)(O)[C@@H](O)[C@H](C)O3)[C@H](N(C)C)[C@H]2OC(=O)C(C)(C)C)[C@@H](CC=O)C[C@@H](C)[C@@H](O[C@H]2CC[C@H](N(C)C)[C@@H](C)O2)/C=C/C=C/C[C@@H](C)OC(=O)C[C@H]1O` returned an EC50 with Human coronavirus OC43 [4] of 4.5 µM. Moreover, the CC50 at 72 h in [5] came to 16.2 µM. In addition, in [6], the selectivity ratio came out at 3.6.

In turn, `CCCCC(=O)O[C@H]1[C@H](O[C@H]2[C@@H](CC=O)C[C@@H](C)[C@@H](O[C@H]3CC[C@H](N(C)C)[C@@H](C)O3)/C=C/C=C/C[C@@H](C)OC(=O)C[C@@H](O)[C@@H]2OC)O[C@H](C)[C@@H](O[C@H]2C[C@@](C)(O)[C@@H](O)[C@H](C)O2)[C@@H]1N(C)C` displayed a concentration for a half-maximal effect (EC50) in the data set with Human coronavirus OC43 [4] of 5.35 µM. Moreover, the CC50 at 72 h in data set [5] came to 33.5 µM. In [6], the selectivity ratio is 6.2.

On to `CO[C@@H]1[C@@H](O[C@@H]2O[C@H](C)[C@@H](O[C@H]3C[C@@](C)(O)[C@@H](O)[C@H](C)O3)[C@H](N(C)C)[C@H]2O)[C@@H](CC=O)C[C@@H](C)[C@@H](O[C@H]2CC[C@H](N(C)C)[C@@H](C)O2)/C=C/C=C/C[C@@H](C)OC(=O)C[C@H]1OC(C)=O`, for which the figures for the EC50 with Human coronavirus 229E [1] (Human coronavirus 229E) and in the data set with Human coronavirus OC43 [2] (Betacoronavirus 1) were 25.4 µM and > 50 µM, respectively.
